According to patent publication US12398120B2, “Substituted hydantoinamides as ADAMTS7 antagonists” (BAYER AKTIENGESELLSCHAFT, priority 2019, dated 2025):

Target: ADAMTS4 (Homo sapiens (Human), UniProt O75173)
Experiment: Selectivity assay for ADAMTS-7 modulators: ADAMTS4 (FRET substrate)
Format: biochemical
Details: ADAMTS4 (R&D 4307-AD) 50 nM, substrate Dabcyl-EEVKAKVQPY-Glu(Edans)-NH2 1 μM, 120 min, 32° C.
Procedure: 1 μl test compound solution (dissolved in DMSO, at the corresponding concentration) or pure DMSO as a control was added per well. The enzymatic reaction was initiated by addition of 25 μl of the respective concentration of the respective FRET substrate (see table 2 below) in reaction buffer.
The increase of fluorescence intensity was measured in appropriate fluorescence plate reader (e.g. TECAN Ultra) using the respective wavelengths for excitation and emission. IC50 values were calculated from percentage of inhibition of enzyme activity as a function of test compound concentration.

Chain of ADAMTS4 (O75173 213-685): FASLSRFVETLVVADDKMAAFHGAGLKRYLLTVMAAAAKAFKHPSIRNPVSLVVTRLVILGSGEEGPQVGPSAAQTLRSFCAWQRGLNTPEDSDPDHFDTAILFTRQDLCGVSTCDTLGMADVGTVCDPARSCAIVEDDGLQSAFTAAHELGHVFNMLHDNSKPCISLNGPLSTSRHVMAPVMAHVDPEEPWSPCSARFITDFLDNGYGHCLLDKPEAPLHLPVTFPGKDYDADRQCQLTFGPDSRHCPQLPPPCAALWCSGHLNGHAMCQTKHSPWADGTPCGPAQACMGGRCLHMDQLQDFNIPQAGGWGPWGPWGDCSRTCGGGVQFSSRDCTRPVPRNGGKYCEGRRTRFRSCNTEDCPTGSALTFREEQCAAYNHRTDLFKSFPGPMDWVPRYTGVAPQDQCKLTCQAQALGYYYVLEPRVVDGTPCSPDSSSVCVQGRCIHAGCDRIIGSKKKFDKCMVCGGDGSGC

IC50 | SMILES
23 µM | Cc1cnoc1C1(CNC(=O)c2ccccc2-c2ccc(C(F)(F)F)cc2)NC(=O)NC1=O (racemic) [Example 59, Rac-N-{[4-(4-Methyl-1,2-Oxazol-5-Yl)-2,5-Dioxoimidazolidin-4-Yl]Methyl}-4′-(Trifluoromethyl)[Biphenyl]-2-Carboxamide]
15 µM | Cc1nn(C)cc1C1(CNC(=O)c2ccccc2-c2ccc(C(F)(F)F)cc2)NC(=O)NC1=O (racemic) [Example 60, Rac-N-{[4-(1,3-Dimethyl-1H-Pyrazol-4-Yl)-2,5-Dioxoimidazolidin-4-Yl]Methyl}-4′-(Trifluoromethyl)[Biphenyl]-2-Carboxamide]
7.4 µM | Cc1cnn(C)c1C1(CNC(=O)c2ccccc2-c2ccc(C(F)(F)F)cc2)NC(=O)NC1=O (racemic) [Example 61, Rac-N-{[4-(1,4-Dimethyl-1H-Pyrazol-5-Yl)-2,5-Dioxoimidazolidin-4-Yl]Methyl}-4′-(Trifluoromethyl)[Biphenyl]-2-Carboxamide]
26 µM | Cc1nsnc1C1(CNC(=O)c2ccccc2-c2ccc(C(F)(F)F)cc2)NC(=O)NC1=O (racemic) [Example 62, Rac-N-{[4-(4-Methyl-1,2,5-Thiadiazol-3-Yl)-2,5-Dioxoimidazolidin-4-Yl]Methyl}-4′-(Trifluoromethyl)[Biphenyl]-2-Carboxamide]
13 µM | Cc1nscc1C1(CNC(=O)c2ccccc2-c2ccc(C(F)(F)F)cc2)NC(=O)NC1=O (racemic) [Example 63, Rac-N-{[4-(3-Methyl-1,2-Thiazol-4-Yl)-2,5-Dioxoimidazolidin-4-Yl]Methyl}-4′-(Trifluoromethyl)[Biphenyl]-2-Carboxamide]
40 µM | Cc1cnoc1C1(CNC(=O)c2ccccc2-c2ccc(C(F)(F)F)nc2)NC(=O)NC1=O (racemic) [Example 77, Rac-N-{[4-(4-Methyl-1,2-Oxazol-5-Yl)-2,5-Dioxoimidazolidin-4-Yl]Methyl}-2-[6-(Trifluoromethyl)Pyridin-3-Yl]Benzamide]
> 50 µM | CCC1(CNC(=O)c2ccccc2-c2ccc(C(F)(F)F)cc2)NC(=O)NC1=O (racemic) [Example 81, Rac-N-[(4-Ethyl-2,5-Dioxoimidazolidin-4-Yl)Methyl]-4′-(Trifluoromethyl)[Biphenyl]-2-Carboxamide]
5.4 µM | O=C1NC(=O)C(CNC(=O)c2ccccc2-c2ccc(C(F)(F)F)cc2)(c2cncn2CC(F)(F)F)N1 (racemic) [Example 94, Rac-N-({2,5-Dioxo-4-[1-(2,2,2-Trifluoroethyl)-1H-Imidazol-5-Yl]Imidazolidin-4-Yl}Methyl)-4′-(Trifluoromethyl)[Biphenyl]-2-Carboxamide]
> 50 µM | CC1(CNC(=O)c2ccccc2-c2ccc(C(F)(F)F)cc2)NC(=O)NC1=O (racemic) [Example 95, Rac-N-[(4-Methyl-2,5-Dioxoimidazolidin-4-Yl)Methyl]-4′-(Trifluoromethyl)[Biphenyl]-2-Carboxamide]
7.2 µM | Cc1cnsc1C1(CNC(=O)c2ccccc2-c2ccc(C(F)(F)F)cc2)NC(=O)NC1=O (racemic) [Example 97, Rac-N-{[4-(4-Methyl-1,2-Thiazol-5-Yl)-2,5-Dioxoimidazolidin-4-Yl]Methyl}-4′-(Trifluoromethyl)[Biphenyl]-2-Carboxamide]
21 µM | Cc1c(C2(CNC(=O)c3ccccc3-c3ccc(C(F)(F)F)cc3)NC(=O)NC2=O)cnn1CC(F)(F)F (racemic) [Example 98, Rac-N-({4-[5-Methyl-1-(2,2,2-Trifluoroethyl)-1H-Pyrazol-4-Yl]-2,5-Dioxoimidazolidin-4-Yl}Methyl)-4′-(Trifluoromethyl)[Biphenyl]-2-Carboxamide]
14 µM | Cc1ccc(-c2ccccc2C(=O)NCC2(c3ccccn3)NC(=O)NC2=O)cc1 (racemic) [Example 164, Rac-N-{[2,5-Dioxo-4-(Pyridin-2-Yl)Imidazolidin-4-Yl]Methyl}-4′-Methyl[Biphenyl]-2-Carboxamide]
6.6 µM | Cc1scnc1C1(CNC(=O)c2cc(F)ccc2-c2ccc(C(F)(F)F)cc2)NC(=O)NC1=O (racemic) [Example 165, Rac-4-Fluoro-N-{[4-(5-Methyl-1,3-Thiazol-4-Yl)-2,5-Dioxoimidazolidin-4-Yl]Methyl}-4′-(Trifluoromethyl)[Biphenyl]-2-Carboxamide]
4.4 µM | Cc1ccc(C(=O)NCC2(c3ncsc3C)NC(=O)NC2=O)c(-c2ccc(C(F)(F)F)cc2)c1 (racemic) [Example 167, Rac-5-Methyl-N-{[4-(5-Methyl-1,3-Thiazol-4-Yl)-2,5-Dioxoimidazolidin-4-Yl]Methyl}-4′-(Trifluoromethyl)[Biphenyl]-2-Carboxamide]
8.5 µM | Cc1scnc1C1(CNC(=O)c2ccc(F)cc2-c2ccc(Cl)cc2)NC(=O)NC1=O (racemic) [Example 169, Rac-4′-Chloro-5-Fluoro-N-{[4-(5-Methyl-1,3-Thiazol-4-Yl)-2,5-Dioxoimidazolidin-4-Yl]Methyl}[Biphenyl]-2-Carboxamide]
6.9 µM | Cc1scnc1C1(CNC(=O)c2ccccc2-c2ccc(Cl)cc2)NC(=O)NC1=O (racemic) [Example 171, Rac-4′-Chloro-N-{[4-(5-Methyl-1,3-Thiazol-4-Yl)-2,5-Dioxoimidazolidin-4-Yl]Methyl}[Biphenyl]-2-Carboxamide]
12 µM | Cn1nccc1C1(CNC(=O)c2cc(F)ccc2-c2ccc(C(F)(F)F)cc2)NC(=O)NC1=O (racemic) [Example 177, Rac-4-Fluoro-N-{[4-(1-Methyl-1H-Pyrazol-5-Yl)-2,5-Dioxoimidazolidin-4-Yl]Methyl}-4′-(Trifluoromethyl)[Biphenyl]-2-Carboxamide]
12 µM | Cn1nccc1C1(CNC(=O)c2ccc(F)cc2-c2ccc(Cl)cc2)NC(=O)NC1=O (racemic) [Example 179, Rac-4′-Chloro-5-Fluoro-N-{[4-(1-Methyl-1H-Pyrazol-5-Yl)-2,5-Dioxoimidazolidin-4-Yl]Methyl}[Biphenyl]-2-Carboxamide]
12 µM | Cn1nccc1C1(CNC(=O)c2ccccc2-c2ccc(Cl)cc2)NC(=O)NC1=O (racemic) [Example 181, Rac-4′-Chloro-N-{[4-(1-Methyl-1H-Pyrazol-5-Yl)-2,5-Dioxoimidazolidin-4-Yl]Methyl}[Biphenyl]-2-Carboxamide]
19 µM | Cn1nccc1C1(CNC(=O)c2ccc(F)cc2-c2ccc(C(F)(F)F)cc2)NC(=O)NC1=O (racemic) [Example 183, Rac-5-Fluoro-N-{[4-(1-Methyl-1H-Pyrazol-5-Yl)-2,5-Dioxoimidazolidin-4-Yl]Methyl}-4′-(Trifluoromethyl)[Biphenyl]-2-Carboxamide]
30 µM | O=C1NC(=O)C(CNC(=O)c2ccccc2-c2ccc(C(F)(F)F)cc2)(c2cscn2)N1 (racemic) [Example 196, Rac-N-{[2,5-Dioxo-4-(1,3-Thiazol-4-Yl)Imidazolidin-4-Yl]Methyl}-4′-(Trifluoromethyl)[Biphenyl]-2-Carboxamide]
39 µM | O=C1NC(=O)C(CNC(=O)c2ccc(F)cc2-c2ccc(C(F)(F)F)cc2)(c2cscn2)N1 (racemic) [Example 198, Rac-N-{[2,5-Dioxo-4-(1,3-Thiazol-4-Yl)Imidazolidin-4-Yl]Methyl}-5-Fluoro-4′-(Trifluoromethyl)[Biphenyl]-2-Carboxamide]
28 µM | Cc1ccc(-c2ccccc2C(=O)NCC2(c3nccs3)NC(=O)NC2=O)cc1 (racemic) [Example 200, Rac-N-{[2,5-Dioxo-4-(1,3-Thiazol-2-Yl)Imidazolidin-4-Yl]Methyl}-4′-Methyl[Biphenyl]-2-Carboxamide]
38 µM | Cc1ccc(C(=O)NCC2(C(C)C)NC(=O)NC2=O)c(-c2ccc(C(F)(F)F)cc2)c1 (racemic) [Example 202, Rac-N-[(4-Isopropyl-2,5-Dioxoimidazolidin-4-Yl)Methyl]-5-Methyl-4′-(Trifluoromethyl)[Biphenyl]-2-Carboxamide]
> 50 µM | CC(C)C1(CNC(=O)c2ccc(F)cc2-c2ccc(C(F)(F)F)cc2)NC(=O)NC1=O (racemic) [Example 206, Rac-5-Fluoro-N-[(4-Isopropyl-2,5-Dioxoimidazolidin-4-Yl)Methyl]-4′-(Trifluoromethyl)[Biphenyl]-2-Carboxamide]
> 50 µM | CC(C)C1(CNC(=O)c2ccccc2-c2ccc(C(F)(F)F)cc2)NC(=O)NC1=O (racemic) [Example 208, Rac-N-[(4-Isopropyl-2,5-Dioxoimidazolidin-4-Yl)Methyl]-4′-(Trifluoromethyl)[Biphenyl]-2-Carboxamide]
> 50 µM | O=C1NC(=O)C(CNC(=O)c2ccc(F)cc2-c2ccc(C(F)(F)F)cc2)(c2ncccc2C(F)(F)F)N1 (racemic) [Example 240, Rac-N-({2,5-Dioxo-4-[3-(Trifluoromethyl)Pyridin-2-Yl]Imidazolidin-4-Yl}Methyl)-5-Fluoro-4′-(Trifluoromethyl)[Biphenyl]-2-Carboxamide]
41 µM | O=C1NC(=O)C(CNC(=O)c2ccc(F)cc2-c2ccc(Cl)cc2)(c2ncccc2C(F)(F)F)N1 (racemic) [Example 241, Rac-4′-Chloro-N-({2,5-Dioxo-4-[3-(Trifluoromethyl)Pyridin-2-Yl]Imidazolidin-4-Yl}Methyl)-5-Fluoro[Biphenyl]-2-Carboxamide]
29 µM | O=C1NC(=O)C(CNC(=O)c2ccccc2-c2ccc(Cl)cc2)(c2ncccc2C(F)(F)F)N1 (racemic) [Example 242, Rac-4′-Chloro-N-({2,5-Dioxo-4-[3-(Trifluoromethyl)Pyridin-2-Yl]Imidazolidin-4-Yl}Methyl)[Biphenyl]-2-Carboxamide]

SMILES | IC50
Cc1ccc(-c2ccccc2C(=O)NCC2(C(C)C)NC(=O)NC2=O)cc1 (racemic) [Example 204, Rac-N-[(4-Isopropyl-2,5-Dioxoimidazolidin-4-Yl)Methyl]-4′-Methyl[Biphenyl]-2-Carboxamide] | 22 µM
